Consider 22 compounds from patent US9096624B2 (OSI Pharmaceuticals, LLC, priority 2009, dated 2015).

For test [1], the target named is T1, FAK (Homo sapiens, UniProt Q05397). The test is described as follows: biochemical.
The target in test [2] is T1, FAK. The test is described as follows: Cell-based capture ELISA for inhibition of FAK autophosphorylation [pY397] in MiaPaCa2 cells. As for the experimental part:
Cell-Based Assays for Inhibition of FAK Autophosphorylation: MiaPaCa2 and U87MG
ELISA kit from Invitrogen (KHO0441).
Reagents Provided in Biosource FAK [pY397]
The cells were then suspended in cell assay medium.
In general terms: ELISA stands for enzyme-linked immunosorbent assay.

[3] abbreviates: MIA-PaCa2 cells, + 50% mouse plasma (Table 3), read-out: Mean FAK Cell Mechanistic IC50 + 50% mP MIA-PaCa2.
The mark [4] stands for this setting: MIA-PaCa2 cells, + 50% mouse plasma (Table 2), read-out: Mean FAK Cell Mechanistic IC50 + 50% mP MIA-PaCa2.
The mark [5] stands for this setting: MIA-PaCa2 cells on fibronectin, 2 h, no plasma, read-out: Mean FAK Cell Mechanistic IC50 MIA-PaCa2.
[6] abbreviates: MIA-PaCa2 cells, + 50% human plasma, read-out: Mean FAK Cell Mechanistic IC50 + 50% hP MIA-PaCa2.

Some results are limits rather than exact numbers.

T1 sequence (Q05397 whole entry): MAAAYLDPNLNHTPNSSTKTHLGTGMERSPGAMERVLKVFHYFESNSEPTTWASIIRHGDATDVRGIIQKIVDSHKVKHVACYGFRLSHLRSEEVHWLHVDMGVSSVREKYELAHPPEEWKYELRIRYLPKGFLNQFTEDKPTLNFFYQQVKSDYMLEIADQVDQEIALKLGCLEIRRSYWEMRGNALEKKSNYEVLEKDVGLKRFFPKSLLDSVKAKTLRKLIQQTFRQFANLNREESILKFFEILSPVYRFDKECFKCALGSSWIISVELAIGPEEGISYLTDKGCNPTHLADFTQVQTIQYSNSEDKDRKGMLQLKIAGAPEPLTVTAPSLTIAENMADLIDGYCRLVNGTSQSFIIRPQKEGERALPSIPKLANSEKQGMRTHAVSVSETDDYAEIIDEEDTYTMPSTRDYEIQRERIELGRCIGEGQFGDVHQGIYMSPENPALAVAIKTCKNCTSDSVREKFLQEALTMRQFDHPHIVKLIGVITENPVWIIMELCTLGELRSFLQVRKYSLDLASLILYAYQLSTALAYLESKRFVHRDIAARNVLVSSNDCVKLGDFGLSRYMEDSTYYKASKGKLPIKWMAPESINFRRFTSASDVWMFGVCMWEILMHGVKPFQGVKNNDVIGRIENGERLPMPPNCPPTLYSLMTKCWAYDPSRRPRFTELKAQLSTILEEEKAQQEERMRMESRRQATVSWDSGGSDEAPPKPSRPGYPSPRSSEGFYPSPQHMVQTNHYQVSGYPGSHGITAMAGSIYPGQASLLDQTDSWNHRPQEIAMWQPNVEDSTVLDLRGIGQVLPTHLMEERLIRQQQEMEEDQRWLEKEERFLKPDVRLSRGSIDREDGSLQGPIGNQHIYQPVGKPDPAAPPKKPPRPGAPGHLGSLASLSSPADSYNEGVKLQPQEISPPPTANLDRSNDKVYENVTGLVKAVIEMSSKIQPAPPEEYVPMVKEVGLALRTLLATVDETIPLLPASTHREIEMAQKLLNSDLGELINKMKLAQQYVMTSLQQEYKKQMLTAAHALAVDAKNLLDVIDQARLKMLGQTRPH

As a reminder, the IC50 is the concentration that inhibits the measured activity by half. `CCOP(=O)(OCC)C1CCC(c2ccc(Nc3nc(Nc4ccccc4OC)ncc3C(F)(F)F)c3c2CN(C)C3=O)CC1` (mixture of isomers) [Example 193, Diethyl {4-[7-({2-[(2-methoxyphenyl)amino]-5-(trifluoromethyl)pyrimidin-4-yl}amino)-2-methyl-1-oxo-2,3-dihydro-1H-isoindol-4-yl]cyclohexyl}phosphonate]: the half-inhibitory concentration (IC50) against FAK [1] and at FAK [2] (setting [3]) was below 1000 nM throughout.

Take `CCOP(=O)(Cc1ccc(Nc2ncc(C(F)(F)F)c(Nc3ccc([C@H]4CC[C@H](O)CC4)c4c3C(=O)N(C)C4)n2)cc1)OCC` (stereo in doubt) [Example 92, Diethyl (4-{[4-{[7-(trans-4-hydroxycyclohexyl)-2-methyl-3-oxo-2,3-dihydro-1H-isoindol-4-yl]amino}-5-(trifluoromethyl)pyrimidin-2-yl]amino}benzyl)phosphonate]: the IC50 on FAK [1] and at FAK [2] (setting [4]) was below 1000 nM throughout.

As for `CCOP(=O)(Cc1ccccc1Nc1ncc(C(F)(F)F)c(NCc2cccnc2N(C)S(C)(=O)=O)n1)OCC` [Example 3, Diethyl [2-({4-[({2-[methyl(methylsulfonyl)amino]pyridin-3-yl}methyl)amino]-5-(trifluoromethyl)pyrimidin-2-yl}amino)benzyl]phosphonate], the figures for the IC50 on FAK [1], on FAK [2] (setting [5]) and at FAK [2] (setting [6]) were below 1000 nM, above 10000 nM and above 10000 nM, respectively.

Turning to `CC(C)P(=O)(Cc1ccc(Nc2ncc(C(F)(F)F)c(NCc3cccnc3N(C)S(C)(=O)=O)n2)cc1)C(C)C` [Example 8, N-[3-({[2-({4-[(Dipropan-2-ylphosphoryl)methyl]phenyl}amino)-5-(trifluoromethyl)pyrimidin-4-yl]amino}methyl)pyridin-2-yl]-N-methylmethanesulfonamide], the IC50 on FAK [1], on FAK [2] (setting [5]), at FAK [2] (setting [6]) and on FAK [2] (setting [4]) was below 1000 nM each time.

As for `CC(C)P(=O)(Cc1cccc(Nc2ncc(C(F)(F)F)c(NCc3cccnc3N(C)S(C)(=O)=O)n2)c1)C(C)C` [Example 9, N-[3-({[2-({3-[(Dipropan-2-ylphosphoryl)methyl]phenyl}amino)-5-(trifluoromethyl)pyrimidin-4-yl]amino}methyl)pyridin-2-yl]-N-methylmethanesulfonamide], the IC50 on FAK [1], at FAK [2] (setting [5]), on FAK [2] (setting [6]) and at FAK [2] (setting [4]) was below 1000 nM in each case.

As to `CCP(=O)(CC)Cc1ccc(Nc2ncc(C(F)(F)F)c(NCc3cccnc3N(C)S(C)(=O)=O)n2)cc1` [Example 10, N-[3-({[2-({4-[(diethylphosphoryl)methyl]phenyl}amino)-5-(trifluoromethyl)pyrimidin-4-yl]amino}methyl)pyridin-2-yl]-N-methylmethanesulfonamide], the IC50 against FAK [1], at FAK [2] (setting [5]), on FAK [2] (setting [6]) and at FAK [2] (setting [4]) was below 1000 nM throughout.

In the case of `CCP(=O)(CC)Cc1cccc(Nc2ncc(C(F)(F)F)c(NCc3cccnc3N(C)S(C)(=O)=O)n2)c1` [Example 11, N-[3-({[2-({3-[(Diethylphosphoryl)methyl]phenyl}amino)-5-(trifluoromethyl)pyrimidin-4-yl]amino}methyl)pyridin-2-yl]-N-methylmethanesulfonamide], the IC50 against FAK [1], on FAK [2] (setting [5]), at FAK [2] (setting [6]) and at FAK [2] (setting [4]) was below 1000 nM in each case.

As to `CN(c1ncccc1CNc1nc(Nc2ccc(CP(C)(C)=O)cc2)ncc1C(F)(F)F)S(C)(=O)=O` [Example 12, N-[3-({[2-({4-[(Dimethylphosphoryl)methyl]phenyl}amino)-5-(trifluoromethyl)pyrimidin-4-yl]amino}methyl)pyridin-2-yl]-N-methylmethanesulfonamide], the IC50 on FAK [1] is below 1000 nM; on FAK [2] (setting [5]) it was 1000 to 10000 nM; at FAK [2] (setting [6]), 1000 to 10000 nM; at FAK [2] (setting [4]) it was 1000 to 10000 nM.

As to `CN(c1ncccc1CNc1nc(Nc2cccc(CP(C)(C)=O)c2)ncc1C(F)(F)F)S(C)(=O)=O` [Example 13, N-[3-({[2-({3-[(Dimethylphosphoryl)methyl]phenyl}amino)-5-(trifluoromethyl)pyrimidin-4-yl]amino}methyl)pyridin-2-yl]-N-methylmethanesulfonamide], the IC50 against FAK [1], at FAK [2] (setting [5]), at FAK [2] (setting [6]) and at FAK [2] (setting [4]) was below 1000 nM each time.

Take `CN(c1ncccc1CNc1nc(Nc2ccc(P(C)(C)=O)cc2)ncc1C(F)(F)F)S(C)(=O)=O` [Example 14, N-[3-({[2-{[4-(Dimethylphosphoryl)phenyl]amino}-5-(trifluoromethyl)pyrimidin-4-yl]amino}methyl)pyridin-2-yl]-N-methylmethanesulfonamide]: the IC50 on FAK [1], at FAK [2] (setting [5]), at FAK [2] (setting [6]) and on FAK [2] (setting [4]) was below 1000 nM throughout.

`CN(c1ncccc1CNc1nc(Nc2cccc(P(C)(C)=O)c2)ncc1C(F)(F)F)S(C)(=O)=O` [Example 15, N-[3-({[2-{[3-(Dimethylphosphoryl)phenyl]amino}-5-(trifluoromethyl)pyrimidin-4-yl]amino}methyl)pyridin-2-yl]-N-methylmethanesulfonamide]: the IC50 against FAK [1], at FAK [2] (setting [5]), at FAK [2] (setting [6]) and at FAK [2] (setting [4]) was below 1000 nM each time.

Turning to `CNC(=O)c1ccccc1Nc1nc(Nc2ccc(CP(C)(C)=O)cc2)ncc1C(F)(F)F` [Example 16, 2-{[2-({4-[(Dimethylphosphoryl)methyl]phenyl}amino)-5-(trifluoromethyl)pyrimidin-4-yl]amino}-N-methylbenzamide], the IC50 against FAK [1], at FAK [2] (setting [5]), at FAK [2] (setting [6]) and on FAK [2] (setting [4]) was below 1000 nM throughout.

Regarding `CNC(=O)c1ccccc1Nc1nc(Nc2cccc(CP(C)(C)=O)c2)ncc1C(F)(F)F` [Example 17, 2-{2-[3-(Dimethylphosphinoylmethyl)phenylamino]-5-trifluoromethylpyrimidin-4-ylamino}-N-methylbenzamide], the IC50 on FAK [1], at FAK [2] (setting [5]), at FAK [2] (setting [6]) and at FAK [2] (setting [4]) was below 1000 nM in each case.

For the compound `CNC(=O)c1ccccc1Nc1nc(Nc2ccc(P(C)(C)=O)cc2)ncc1C(F)(F)F` [Example 18, 2-{[2-{[4-(Dimethylphosphoryl)phenyl]amino}-5-(trifluoromethyl)pyrimidin-4-yl]amino}-N-methylbenzamide], the IC50 on FAK [1], at FAK [2] (setting [5]), at FAK [2] (setting [6]) and on FAK [2] (setting [4]) was below 1000 nM in each case.

As to `CCOP(=O)(Cc1ccc(Nc2ncc(C(F)(F)F)c(Nc3ccccc3C(=O)NC)n2)cc1)OCC` [Example 20, diethyl (4-{[4-{[2-(methylcarbamoyl)phenyl]amino}-5-(trifluoromethyl)pyrimidin-2-yl]amino}benzyl)phosphonate], the IC50 on FAK [1], on FAK [2] (setting [5]) and at FAK [2] (setting [6]) was below 1000 nM each time.

Turning to `CCOP(=O)(OCC)C(C)(C)c1ccc(Nc2ncc(C(F)(F)F)c(Nc3ccccc3C(=O)NC)n2)cc1` [Example 21, Diethyl [2-(4-{[4-{[2-(methylcarbamoyl)phenyl]amino}-5-(trifluoromethyl)pyrimidin-2-yl]amino}phenyl)propan-2-yl]phosphonate], the IC50 against FAK [1], on FAK [2] (setting [5]) and at FAK [2] (setting [6]) was below 1000 nM in each case.

Regarding `CCOP(C)(=O)Cc1ccc(Nc2ncc(C(F)(F)F)c(Nc3ccccc3C(=O)NC)n2)cc1` (stereo not drawn) [Example 22, Ethyl methyl(4-{[4-{[2-(methylcarbamoyl)phenyl]amino}-5-(trifluoromethyl)pyrimidin-2-yl]amino}benzyl)phosphinate], the IC50 at FAK [1], on FAK [2] (setting [5]) and on FAK [2] (setting [6]) was below 1000 nM each time.

As for `CCP(=O)(CC)Cc1cccc(Nc2ncc(C(F)(F)F)c(Nc3ccccc3C(=O)NC)n2)c1` [Example 23, 2-{[2-({3-[(Diethylphosphoryl)methyl]phenyl}amino)-5-(trifluoromethyl)pyrimidin-4-yl]amino}-N-methylbenzamide], the IC50 on FAK [1], at FAK [2] (setting [5]), on FAK [2] (setting [6]) and on FAK [2] (setting [4]) was below 1000 nM in each case.

For `CCP(=O)(CC)Cc1ccc(Nc2ncc(C(F)(F)F)c(Nc3ccccc3C(=O)NC)n2)cc1` [Example 24, 2-{[2-({4-[(Diethylphosphoryl)methyl]phenyl}amino)-5-(trifluoromethyl)pyrimidin-4-yl]amino}-N-methylbenzamide], the IC50 against FAK [1], at FAK [2] (setting [5]), on FAK [2] (setting [6]) and on FAK [2] (setting [4]) was below 1000 nM each time.

For `CCOP(=O)(Cc1ccc(Nc2ncc(C(F)(F)F)c(NCc3cccc(S(C)(=O)=O)c3)n2)cc1)OCC` [Example 25, diethyl (4-{[4-{[3-(methylsulfonyl)benzyl]amino}-5-(trifluoromethyl)pyrimidin-2-yl]amino}benzyl)phosphonate], the IC50 against FAK [1] is below 1000 nM; on FAK [2] (setting [4]), 1000 to 10000 nM.

Turning to `CCOP(=O)(Cc1ccc(Nc2ncc(C(F)(F)F)c(Nc3ccc([C@H]4CC[C@@H](N5CCN(C(C)=O)CC5)CC4)c4c3C(=O)N(C)C4)n2)c(OC)c1)OCC` [Example 237, Diethyl (4-{[4-({7-[cis-4-(4-acetylpiperazin-1-yl)cyclohexyl]-2-methyl-3-oxo-2,3-dihydro-1H-isoindol-4-yl}amino)-5-(trifluoromethyl)pyrimidin-2-yl]amino}-3-methoxybenzyl)phosphonate], on FAK [2] (setting [3]), the IC50 is below 1000 nM.

Consider `CN1Cc2c(c(Nc3nc(Nc4ccc(CP5(=O)OCCCO5)cc4)ncc3C(F)(F)F)ccc2[C@H]2CC[C@H](O)CC2)C1=O` [compound 230], for which the IC50 on FAK [2] (setting [3]) was below 1000 nM.
